pIC50: −log10 of the molar value. Where two headings read alike, the source gives them in different places.
Columns and labels:
PDE2A [1] = target: T1, PDE2A (Rattus norvegicus, UniProt Q01062); experiment: In vitro autoradiography on SD rat brain sections; assay type: binding; settings: co-incubation with 1 μM blocker
T1 construct: we first conducted in vitro autoradiography studies on SD rat brain sections; from tissue; host or cells: male Sprague-Dawley rat brain sections (20 μm)
T1 sequence (Q01062 1-928): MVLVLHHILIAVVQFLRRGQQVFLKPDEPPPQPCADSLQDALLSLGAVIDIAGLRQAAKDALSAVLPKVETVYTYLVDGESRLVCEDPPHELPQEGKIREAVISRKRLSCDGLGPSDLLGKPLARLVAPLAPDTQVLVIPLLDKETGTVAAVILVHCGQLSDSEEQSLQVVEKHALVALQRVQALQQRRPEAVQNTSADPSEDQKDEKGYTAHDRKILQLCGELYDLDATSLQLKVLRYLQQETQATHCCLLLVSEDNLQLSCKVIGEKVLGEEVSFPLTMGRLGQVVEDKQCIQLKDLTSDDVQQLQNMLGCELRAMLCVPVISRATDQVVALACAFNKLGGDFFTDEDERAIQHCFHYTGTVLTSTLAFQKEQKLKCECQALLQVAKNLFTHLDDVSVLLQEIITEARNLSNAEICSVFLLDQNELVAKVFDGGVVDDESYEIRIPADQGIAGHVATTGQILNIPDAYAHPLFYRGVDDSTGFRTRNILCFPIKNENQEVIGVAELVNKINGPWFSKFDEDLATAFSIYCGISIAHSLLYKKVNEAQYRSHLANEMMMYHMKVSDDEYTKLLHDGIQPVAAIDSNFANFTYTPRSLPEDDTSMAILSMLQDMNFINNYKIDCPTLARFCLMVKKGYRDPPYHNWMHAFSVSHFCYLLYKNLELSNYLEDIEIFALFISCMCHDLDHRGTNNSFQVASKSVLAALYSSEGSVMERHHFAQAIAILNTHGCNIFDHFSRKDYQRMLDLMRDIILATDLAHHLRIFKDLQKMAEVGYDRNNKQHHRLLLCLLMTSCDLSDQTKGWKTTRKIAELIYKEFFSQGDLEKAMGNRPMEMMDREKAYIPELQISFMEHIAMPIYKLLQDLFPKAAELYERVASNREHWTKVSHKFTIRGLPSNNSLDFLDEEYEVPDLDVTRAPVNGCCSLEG
Method: After incubation, sections were washed three times (2 min each) with prechilled buffer and briefly rinsed in cold distilled water (10 s). The slices were then air-dried and placed on imaging screens for 60 min before being scanned using a BAS5000 system (Fujifilm).

Unbound brain fraction = assay type: in vitro ADME
[2] = logD by shake flask method with LC-MS/MS analysis; assay type: physicochemical
PDE2A [3] = target: PDE2A (Homo sapiens, UniProt O00408); settings: cited from earlier work
[4] = Ex vivo whole-body biodistribution in ddY mice; set-up: species or system mouse; settings: 60 min postinjection, i.v.
Method: Decay-corrected radioactivity in each organ was measured using a Wizard automatic gamma counter (PerkinElmer, USA).

[5] = Dynamic PET imaging in SD rats; assay type: in vivo; settings: SD rat, baseline
Method: Dynamic PET imaging was performed using an Inveon PET scanner (Siemens). […] Images were reconstructed using a Hanning filter with a Nyquist cutoff of 0.5 cycles/pixel, with the following framing: 4 × 1 min, 8 × 2 min, and 8 × 5 min. Data analysis was performed using PMOD version 3.4.

[6] = Ex vivo radiometabolite analysis in SD rats; settings: SD rat
From the text: Brain and plasma samples were rapidly collected and processed following previously reported procedures.

PDE2A (Homo sapiens, UniProt O00408), sequence (O00408 whole entry): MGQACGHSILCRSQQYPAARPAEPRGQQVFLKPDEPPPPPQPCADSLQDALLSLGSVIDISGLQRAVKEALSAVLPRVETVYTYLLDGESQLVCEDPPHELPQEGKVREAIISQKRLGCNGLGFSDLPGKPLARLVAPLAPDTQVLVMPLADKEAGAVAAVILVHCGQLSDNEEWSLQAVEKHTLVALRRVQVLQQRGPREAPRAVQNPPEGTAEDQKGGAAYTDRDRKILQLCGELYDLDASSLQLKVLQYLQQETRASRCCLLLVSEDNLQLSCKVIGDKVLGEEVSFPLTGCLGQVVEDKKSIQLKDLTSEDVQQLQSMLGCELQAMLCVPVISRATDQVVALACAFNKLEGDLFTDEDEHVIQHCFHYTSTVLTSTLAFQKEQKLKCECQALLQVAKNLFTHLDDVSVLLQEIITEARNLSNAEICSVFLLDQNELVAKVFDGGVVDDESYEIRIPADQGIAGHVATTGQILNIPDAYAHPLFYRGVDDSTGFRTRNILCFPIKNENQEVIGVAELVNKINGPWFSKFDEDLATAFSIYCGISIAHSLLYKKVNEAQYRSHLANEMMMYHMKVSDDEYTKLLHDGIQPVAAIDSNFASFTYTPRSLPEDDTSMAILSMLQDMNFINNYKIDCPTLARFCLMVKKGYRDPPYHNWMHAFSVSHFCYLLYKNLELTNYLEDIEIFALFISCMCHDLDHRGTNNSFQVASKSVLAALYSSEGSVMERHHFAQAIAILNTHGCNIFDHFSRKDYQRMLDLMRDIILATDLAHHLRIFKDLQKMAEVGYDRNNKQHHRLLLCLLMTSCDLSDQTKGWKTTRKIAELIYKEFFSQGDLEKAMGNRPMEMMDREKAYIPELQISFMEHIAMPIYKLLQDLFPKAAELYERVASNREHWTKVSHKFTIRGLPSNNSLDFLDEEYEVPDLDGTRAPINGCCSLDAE

Cn1ncc(-c2nn(C)c3ncnc(N4CCC4)c23)c1-c1ccc(C(F)(F)F)cc1 [PF-05085727]
blocking effect on [11C]1 signal in autoradiography (PDE2A [1]): significantly reduced the radiotracer signal in PDE2A-rich regions

Cc1nc(NC2(c3ccc(C(F)(F)F)cc3)CC2)c2cnn(C)c2n1 [compound 1, 1,6-Dimethyl-N-(1-(4-(trifluoromethyl)-phenyl)-cyclopropyl)-1H-pyrazolo[3,4-d]-pyrimidin-4-amine]
f u brain (Unbound brain fraction): 7.2%
logD [2]: 3.88

Cc1nc(-c2cnn(C)c2-c2ccc(C(F)(F)F)cc2)c2c(N3CC([18F])C3)ncnn12 [[^18F]PF-05270430]
pIC50 (PDE2A [3]; literature PET radioligands): 9.30

COc1ccc2nnc3c(C)nc(-c4cc(OCCCC[18F])ccc4F)n3c2n1 [[^18F]TA4]
pIC50 (PDE2A [3]; triazine scaffold tracers, ref Schröder et al.): 8.14

Cc1nc(NC2(c3ccc(C(F)(F)F)cc3)CC2)c2cnn([11CH3])c2n1 [[^11C]1]
small intestine uptake [4]: 11 ± 1.5 % ID/g
brain distribution in summed PET images ([5]; 3–20 min): homogeneous distribution
SUVmax (brain uptake) ([5]; at 2 min postinjection): 1.65
brain SUV ([5]; by 20 min): below 0.5
% of unchanged form in brain ([6]; 10 min postinjection): 97%
% of unchanged form in plasma ([6]; 10 min postinjection): 54%
% of unchanged form in brain ([6]; 30 min postinjection): 86%
% of unchanged form in plasma ([6]; 30 min postinjection): 34%

COc1ccc(Cc2nn3c([C@@H](CCCc4ccccc4)[C@@H](C)O)nc(C)c3c(=O)[nH]2)cc1OC [BAY 60-7550]
blocking effect on [11C]1 signal in autoradiography (PDE2A [1]): significantly reduced the radiotracer signal in PDE2A-rich regions

Reference: paper PMC12794084, “Radiosynthesis and Preclinical Evaluation of a Novel ^11C‑Labeled Pyrazolopyrimidine Derivative for Positron Emission Tomography Imaging of Phosphodiesterase 2A” (ACS Medicinal Chemistry Letters, 2025)
